Data as given in patent publication US10227357B2, “Compounds and methods for kinase modulation, and indications therefor” (Plexxikon Inc., priority 2012, dated 2019).

Biological target: T1, c-kit mutant D816V (Homo sapiens, UniProt P10721, D816V/DEL694-753)
T1 construct: residues 551-934, kinase insertion domain residues 694-753 deleted; 6x-histidine (N); made in house; host or cells: E. coli Arctic Express (DE3) RIL (Stratagene)
Assay: c-Kit mutant D816V biochemical assay, AlphaScreen
Details: c-kit D816V biochemical inhibitory activity; read-out: Biochemical activity (IC50 μM) Kit D816V
Protocol: Compounds to be tested were dissolved in DMSO to a concentration of 20 mM. These were diluted 30 μl into 120 μl of DMSO (4 mM) and 1 μl was added to an assay plate. These were then serially diluted 1:3 (50 μl to 100 μl DMSO) for a total of 8 points. Plates were prepared such that each kinase reaction is 20 μl in 1× kinase buffer (25 mM HEPES, pH 7.2, 8 mM MgCl2, 2 mM MnCl2, 50 mM NaCl, 0.01% Brij, 1 mM DTT, 0.01% BSA), 5% DMSO and 10 μM ATP. […] After incubation of the kinase reaction for 30 minutes at room temperature, 5 μl of donor beads (Streptavidin coated beads (Perkin Elmer Life Science) final concentration 7.5 μg/ml) in stop buffer (25 mM Hepes pH 7.5, 100 mM EDTA, 0.01% BSA) was added, the sample was mixed and incubated for 20 minutes at room temperature before adding 5 μl of acceptor beads (PY20 coated beads (Perkin Elmer Life Science) final concentration 7.5 μg/ml) in stop buffer. The samples were incubated for 60 minutes at room temperature and the signal per well was read on EnVision reader. […] The signal vs. compound concentration was used to determine the IC50.
Cells were grown in Terrific Broth (TB) media to an OD600 of 0.6 at 37° C. at which temperature was reduced to 10° C., protein was induced with 1.0 mM IPTG for 18 hours and harvested by centrifugation at 8000×g for 20 minutes. Cells were re-suspended in 0.1M KPO4 pH 8.0, 250 mM NaCl, 10% Glycerol, 0.75% NP-40, 25 mM Imidazole, 5 mM BME with 0.2 mg/ml Lysosyme, 2.0 mM PMSF, 25 μg/ml DNAse I, incubated in ice for 30 minutes and lysed with a cell disruptor (MicroFluidics). The lysate was clarified by centrifugation at 20,000×g for 2 hours. The protein was captured with Talon resin (Clontech). Contaminating proteins were washed off with 25 mM Tris-HCl pH 8.3, 250 mM NaCl, 15% Glycerol, 1% Triton X-100, and protein eluted using 100 mM EDTA. The protein was further purified using Gel Filtration column 26/600 Superdex 200 (GE) in 50 mM Tris-HCl, pH 8.0, 250 mM NaCl, 15% Glycerol, 5 mM BME. The protein was aliquoted and flash-frozen in liquid Nitrogen.

T1 sequence (P10721 with tags, fused parts or gaps DEL694-753/D816V): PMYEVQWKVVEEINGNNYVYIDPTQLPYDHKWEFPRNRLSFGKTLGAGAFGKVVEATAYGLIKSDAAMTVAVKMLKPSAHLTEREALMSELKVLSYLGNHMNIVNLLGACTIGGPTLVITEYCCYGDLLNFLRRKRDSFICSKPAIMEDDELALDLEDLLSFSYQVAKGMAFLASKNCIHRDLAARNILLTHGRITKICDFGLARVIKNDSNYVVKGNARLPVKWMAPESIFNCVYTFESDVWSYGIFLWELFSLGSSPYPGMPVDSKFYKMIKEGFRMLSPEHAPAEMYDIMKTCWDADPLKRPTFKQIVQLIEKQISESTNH

With `CC(NC(=O)N1CCN(c2ncnc3[nH]c(-c4ccc(Cl)cc4)cc23)C[C@H]1C)c1ccc(Cl)cc1` (stereo in doubt) [P-0021, (2R)-N-[(1S)-1-(4-chlorophenyl)ethyl]-4-[6-(4-chlorophenyl)-7H-pyrrolo[2,3-d]pyrimidin-4-yl]-2-methyl-piperazine-1-carboxamide] the IC50 was 1 to 10 µM.
Work on `CC(C)(C)Oc1ccc(NC(=O)N2CCN(c3ncnc4[nH]c(-c5ccc(Cl)cc5)cc34)CC2)cc1` [P-0017, N-(4-tert-butoxyphenyl)-4-[6-(4-chlorophenyl)-7H-pyrrolo[2,3-d]pyrimidin-4-yl]piperazine-1-carboxamide] yielded an IC50 of 10 to 200 µM.
Compound `C[C@@H]1CN(c2ncnc3[nH]c(-c4ccc(Cl)cc4)cc23)CCN1C(=O)N[C@H](C)c1ccc(F)cc1` [P-0022, (2R)-4-[6-(4-chlorophenyl)-7H-pyrrolo[2,3-d]pyrimidin-4-yl]-N-[(1R)-1-(4-fluorophenyl)ethyl]-2-methyl-piperazine-1-carboxamide] has an IC50 of 0.0001 to 1 µM.
Work on `COc1cccc([C@@H](C)NC(=O)N2CCN(c3ncnc4[nH]c(-c5ccc(Cl)cc5)cc34)C[C@H]2C)c1` [P-0025, (2R)-4-[6-(4-chlorophenyl)-7H-pyrrolo[2,3-d]pyrimidin-4-yl]-N-[(1R)-1-(3-methoxyphenyl)ethyl]-2-methyl-piperazine-1-carboxamide] yielded an IC50 of 10 to 200 µM.
Compound `O=S(=O)(NN1CCN(c2ncnc3[nH]c(-c4ccc(F)cc4)cc23)CC1)c1ccc(OC(F)(F)F)cc1` [P-0026, N-[4-[6-(4-fluorophenyl)-7H-pyrrolo[2,3-d]pyrimidin-4-yl]piperazin-1-yl]-4-(trifluoromethoxy)benzenesulfonamide] has an IC50 of 10 to 200 µM.
In the case of `C[C@H](NC(=O)N1CCN(c2ncnc3[nH]c(-c4ccc(F)cc4)cc23)CC1)c1cccc(C(F)(F)F)c1` [P-0033, 4-[6-(4-fluorophenyl)-7H-pyrrolo[2,3-d]pyrimidin-4-yl]-N-[(1S)-1-[3-(trifluoromethyl)phenyl]ethyl]piperazine-1-carboxamide], the IC50 is reported as 0.0001 to 1 µM.
Work on `C[C@@H]1CN(c2ncnc3[nH]c(-c4ccc(F)cc4)cc23)CCN1C(=O)N[C@H](C)c1ccc(F)cc1` [P-0034, (2R)-N-[(1R)-1-(4-fluorophenyl)ethyl]-4-[6-(4-fluorophenyl)-7H-pyrrolo[2,3-d]pyrimidin-4-yl]-2-methyl-piperazine-1-carboxamide] yielded an IC50 of 1 to 10 µM.
`C[C@H](NC(=O)N1CCN(c2ncnc3[nH]c(-c4ccc(F)cc4)cc23)CC1)c1cccc(F)c1` [P-0036, N-[(1S)-1-(3-fluorophenyl)ethyl]-4-[6-(4-fluorophenyl)-7H-pyrrolo[2,3-d]pyrimidin-4-yl]piperazine-1-carboxamide] showed an IC50 of 0.0001 to 1 µM.
`O=C(NCc1cccc(OC(F)F)c1)N1CCN(c2ncnc3[nH]c(-c4ccc(Cl)cc4)cc23)CC1` [P-0037, 4-[6-(4-chlorophenyl)-7H-pyrrolo[2,3-d]pyrimidin-4-yl]-N-[[3-(difluoromethoxy)phenyl]methyl]piperazine-1-carboxamide] showed an IC50 of 1 to 10 µM.
For `COc1cccc([C@H](C)NC(=O)N2CCN(c3ncnc4[nH]c(-c5ccc(Cl)cc5)cc34)CC2)c1` [P-0038, 4-[6-(4-chlorophenyl)-7H-pyrrolo[2,3-d]pyrimidin-4-yl]-N-[(1S)-1-(3-methoxyphenyl)ethyl]piperazine-1-carboxamide], the IC50 was 0.0001 to 1 µM.
In the case of `Cc1ccc(NC(=O)N2CCN(c3ncnc4[nH]c(-c5ccncc5)cc34)C[C@@H]2C)cn1` [P-0039, (2S)-2-methyl-N-(6-methyl-3-pyridyl)-4-[6-(4-pyridyl)-7H-pyrrolo[2,3-d]pyrimidin-4-yl]piperazine-1-carboxamide], the IC50 is reported as 1 to 10 µM.
Compound `C[C@H]1CN(c2ncnc3[nH]c(-c4ccncc4)cc23)CCN1C(=O)NCc1cccc(Cl)c1` [P-0040, (2S)-N-[(3-chlorophenyl)methyl]-2-methyl-4-[6-(4-pyridyl)-7H-pyrrolo[2,3-d]pyrimidin-4-yl]piperazine-1-carboxamide] has an IC50 of 0.0001 to 1 µM.
`C[C@H]1CN(c2ncnc3[nH]c(-c4ccncc4)cc23)CCN1C(=O)NCc1ccc(F)cc1` [P-0041, (2S)-N-[(4-fluorophenyl)methyl]-2-methyl-4-[6-(4-pyridyl)-7H-pyrrolo[2,3-d]pyrimidin-4-yl]piperazine-1-carboxamide] gave an IC50 of 0.0001 to 1 µM.
Compound `CC[C@H](NC(=O)N1CCN(c2ncnc3[nH]c(-c4ccncc4)cc23)C[C@@H]1C)c1ccccc1` [P-0048, (2S)-2-methyl-N-[(1S)-1-phenylpropyl]-4-[6-(4-pyridyl)-7H-pyrrolo[2,3-d]pyrimidin-4-yl]piperazine-1-carboxamide] has an IC50 of 0.0001 to 1 µM.
`C[C@H](NC(=O)N1CCN(c2ncnc3[nH]c(-c4ccncc4)cc23)C[C@@H]1C)c1ccc(F)cc1` [P-0049, (2S)-N-[(1S)-1-(4-fluorophenyl)ethyl]-2-methyl-4-[6-(4-pyridyl)-7H-pyrrolo[2,3-d]pyrimidin-4-yl]piperazine-1-carboxamide] was tested, and the IC50 was 0.0001 to 1 µM.
Compound `C[C@H](NC(=O)N1CCN(c2ncnc3[nH]c(-c4ccncc4)cc23)C[C@@H]1C)c1ccc(Cl)cc1` [P-0050, (2S)-N-[(1S)-1-(4-chlorophenyl)ethyl]-2-methyl-4-[6-(4-pyridyl)-7H-pyrrolo[2,3-d]pyrimidin-4-yl]piperazine-1-carboxamide] has an IC50 of 0.0001 to 1 µM.
With `COc1cccc([C@H](C)NC(=O)N2CCN(c3ncnc4[nH]c(-c5ccncc5)cc34)C[C@@H]2C)c1` [P-0051, (2S)-N-[(1S)-1-(3-methoxyphenyl)ethyl]-2-methyl-4-[6-(4-pyridyl)-7H-pyrrolo[2,3-d]pyrimidin-4-yl]piperazine-1-carboxamide] the IC50 was 0.0001 to 1 µM.
`CC[C@H](NC(=O)N1CCN(c2ncnc3[nH]c(-c4ccncc4)cc23)C[C@H]1C)c1ccccc1` [P-0054, (2R)-2-methyl-N-[(1S)-1-phenylpropyl]-4-[6-(4-pyridyl)-7H-pyrrolo[2,3-d]pyrimidin-4-yl]piperazine-1-carboxamide] showed an IC50 of 0.0001 to 1 µM.
In the case of `Cc1ccc(NC(=O)N2CCN(c3ncnc4[nH]c(-c5ccncc5)cc34)C[C@H]2C)cn1` [P-0055, (2R)-2-methyl-N-(6-methyl-3-pyridyl)-4-[6-(4-pyridyl)-7H-pyrrolo[2,3-d]pyrimidin-4-yl]piperazine-1-carboxamide], the IC50 is reported as 0.0001 to 1 µM.
Compound `COc1cccc([C@H](C)NC(=O)N2CCN(c3ncnc4[nH]c(-c5ccc(C#N)cc5)cc34)CC2)c1` [P-0069, 4-[6-(4-cyanophenyl)-7H-pyrrolo[2,3-d]pyrimidin-4-yl]-N-[(1S)-1-(3-methoxyphenyl)ethyl]piperazine-1-carboxamide] has an IC50 of 0.0001 to 1 µM.
`O=C(NCc1cccc(OC(F)F)c1)N1CCN(c2ncnc3[nH]c(-c4ccc(F)cc4)cc23)CC1` [P-0073, N-[[3-(difluoromethoxy)phenyl]methyl]-4-[6-(4-fluorophenyl)-7H-pyrrolo[2,3-d]pyrimidin-4-yl]piperazine-1-carboxamide] gave an IC50 of 1 to 10 µM.
In the case of `O=C(NCc1cccc(OC(F)(F)F)c1)N1CCN(c2ncnc3[nH]c(-c4ccc(F)cc4)cc23)CC1` [P-0076, 4-[6-(4-fluorophenyl)-7H-pyrrolo[2,3-d]pyrimidin-4-yl]-N-[[3-(trifluoromethoxy)phenyl]methyl]piperazine-1-carboxamide], the IC50 is reported as 1 to 10 µM.
Compound `CCNC(=O)N1CCN(c2ncnc3[nH]c(-c4ccc(F)cc4)cc23)CC1` [P-0088, N-ethyl-4-[6-(4-fluorophenyl)-7H-pyrrolo[2,3-d]pyrimidin-4-yl]piperazine-1-carboxamide] has an IC50 of 1 to 10 µM.
`O=C(NCc1ccc(F)cc1)N1CCN(c2ncnc3[nH]c(-c4ccc(F)cc4)cc23)CC1` [P-0090, N-[(4-fluorophenyl)methyl]-4-[6-(4-fluorophenyl)-7H-pyrrolo[2,3-d]pyrimidin-4-yl]piperazine-1-carboxamide] gave an IC50 of 0.0001 to 1 µM.
`COc1cccc(CNC(=O)N2CCN(c3ncnc4[nH]c(-c5ccc(F)cc5)cc34)CC2)n1` [P-0122, 4-[6-(4-fluorophenyl)-7H-pyrrolo[2,3-d]pyrimidin-4-yl]-N-[(6-methoxy-2-pyridyl)methyl]piperazine-1-carboxamide] gave an IC50 of 1 to 10 µM.
For `O=C(NCc1ccc(F)cn1)N1CCN(c2ncnc3[nH]c(-c4cccnc4)cc23)CC1` [P-0124, N-[(5-fluoro-2-pyridyl)methyl]-4-[6-(3-pyridyl)-7H-pyrrolo[2,3-d]pyrimidin-4-yl]piperazine-1-carboxamide], the IC50 was 1 to 10 µM.
`C[C@H](NC(=O)N1CCN(c2ncnc3[nH]c(-c4ccc(F)cc4)cc23)CC1)c1ccc(F)cc1` [P-0126, N-[(1S)-1-(4-fluorophenyl)ethyl]-4-[6-(4-fluorophenyl)-7H-pyrrolo[2,3-d]pyrimidin-4-yl]piperazine-1-carboxamide] was tested, and the IC50 was 0.0001 to 1 µM.
